# Assays:
# [1] = system: skin senescent cells (aged skin fibroblasts, DI model and RS model); experiment: Survival rate of aged cells (CCK-8), selective apoptosis efficacy on skin senescent cells; format: cell-based, human; details: 100 μg/ml for 3 days, FIG. 2; for apoptosis effect of senescent cells (survival rate of aged cells, CCK-8): DI model or RS model skin fibroblasts; for selective apoptosis effect on the senescent cells versus normal cells: senescent versus normal skin fibroblasts
# Experimental: Specifically, in the case of the DI model, the skin fibroblasts (Normal human dermal fibroblasts, Lonza, Switzerland) were cultured in DMEM Medium (Lonza, Switzerland) containing 10% FBS, and then were inoculated into a chamber slide (Thermo Fisher Scientific, USA) at 1×10^3 cells per well and cultured in a CO2 incubator of 5% concentration at 37° C. for 24 hours. The cultured wells were treated with each of Doxorubicin-hydrochloride (Sigma) and IGF-1 (Sigma) in a concentration of 100 ng/ml for 4 days to induce early senescence of the skin fibroblasts. As a control group, the normal skin fibroblasts that were not treated with Dox or IGF-1 were prepared. Thereafter, for the immunofluorescence stain, the cell culture solution was washed with PBS three times and fixed in 4% paraformaldehyde for 30 minutes. Then, the skin fibroblast sample was washed with PBS containing 0.2% Triton X-100 three times, added to PBS containing 3% BSA, and left for 1 hour. Next, the sample was incubated in 1% BSA containing rabbit polyclonal anti-FOXO4 antibody (SAB4501887, Sigma) (1:500 dilution) at 4° C. overnight to allow the antibody to bind to an antigen contained in the skin fibroblasts. Thereafter, the Sample was washed with the PBS three times, incubated with Alexa Fluor®488-conjugated goat polyclonal secondary antibody (A32731, ThermoFisher Scientific) (1:1000 dilution) against rabbit IgG-H&L at a room temperature for 1 hour, and then washed with the PBS three times. Next, a drop of the mounting solution containing DAPI was placed on a microscope slide glass and fixed by raising the coverslip itself. The fixed sample was observed by a confocal microscope (LSM 980, Zeiss, Germany).
# In the case of the RS model, the aged skin fibroblasts were prepared by continuously culturing skin fibroblasts (Normal human dermal fibroblasts, Lonza, Switzerland) in DMEM Medium (Lonza, Switzerland) containing 10% FBS over 30 to 40 times. For the immunofluorescence staining test, each of the aged skin fibroblasts (p41) and the normal skin fibroblasts was inoculated into a chamber slide (Thermo Fisher Scientific, USA) at 1×10^3 cells per well, and cultured in a CO2 incubator of 5% concentration at 37° C. for 48 hours. Thereafter, the cell culture solution was washed with PBS three times and fixed in 4% paraformaldehyde for 30 minutes. Next, the skin fibroblast sample was washed with PBS containing 0.2% Triton X-100 three times, added to PBS containing 3% BSA, and left for 1 hour. Then, the sample was incubated in 1% BSA containing a rabbit polyclonal anti-FOXO4 antibody (SAB4501887, Sigma) (1:500 dilution) at 4° C. overnight to allow the antibody to bind to an antigen contained in the skin fibroblasts. Thereafter, the sample was washed with the PBS three times, incubated with Alexa Fluor®488-conjugated goat polyclonal secondary antibody (A32731, ThermoFisher Scientific) (1:1000 dilution) against rabbit IgG-H&L at a room temperature for 1 hour, and then was washed with the PBS three times. […]
# As in Test Example 1, after the skin fibroblasts (DI model) that induced senescence by treating with each of Doxorubicin and IGF-1 in a concentration of 100 ng/ml for 4 days or the fibroblasts (RS model) aged by culturing the skin fibroblasts up to passage 40 were treated with a peptide (21a-D) consisting of the amino acid sequence of […] […] ([…]) in each concentration of 100 μg/ml for 3 days, a survival rate of the aged cells was measured. […]
# MMP-1 = MMP-1 expression in senescent cells by qPCR; format: cell-based, human; details: DI model senescent cells, treated as in Test Example 2; FIG. 5
# Experimental: After treating the DI model with the peptide (21a-D) consisting of the amino acid sequence of […] (SEQ ID NO: 1) and the peptide (FOXO4-DRI) consisting of the amino acid sequence of […] (SEQ ID NO: 4) in the same manner as in Test Example 2 above, an ability to suppress the expression of MMP-1 in the senescent cells was identified. After recovering the cultured cells, total RNA was isolated using a TRIzol™ solution (TRIzol™ Reagent, Invitrogen) extraction method. 1 μg of the isolated RNA was synthesized into cDNA using reverse transcriptase (RevertAid Firist strand cDNA synthesis kit, Thermofisher), and then diluted to a final concentration of 200 μl. In order to perform PCR, a mixing kit was prepared by mixing […] (Hs00899658_m1, ThermoFisher Scientific), 10 μl of Taqman universal master mix II with UNG (Applied Biosystems), and 5 μl of distilled water to allow the mixture to be diluted to 16 μl. 16 μl of the mixing kit and 4 μl of cDNA were mixed to perform qPCR under the following reaction conditions. The reaction conditions were 95° C., initialization reaction for 10 minutes, denaturation at 95° C. for 15 seconds, annealing at 60° C. for 60 seconds, and extension reaction at 50° C. for 20 seconds, which were set to be performed in a PCR device (7500 Fast Real-time PCR system, Applied Biosystems) with repetition of 40 times.
# p53 and FOXO4 = molecular target: T1, p53 and FOXO4 (Homo sapiens, UniProt P04637); experiment: Immunofluorescence observation of cytoplasmic movement of p53; format: cell-based; details: DI-treated aged skin fibroblasts; 100 ug/ml for 3 days; FIG. 4
# T1 construct: endogenous in cells; host or cells: skin fibroblasts made senescent with doxorubicin and IGF-1 (DI model)
# Experimental: It was confirmed through the immunofluorescence (IF) stain experiment whether or not this phenomenon was observed when the skin senescent cells were treated with the peptide having the amino acid sequence of SEQ ID NO: 1 according to an embodiment of the present invention. The aged skin fibroblasts treated with DI (Doxorubicin/IGF-1) were treated with the peptide 21a-D in the same manner as in Test Example 2, and then the expression and cytoplasmic movement of FOXO4 and p53 were observed.
# Specifically, the skin fibroblasts were inoculated into a chamber slide (Thermo Fisher Scientific, USA) at 1×10^3 cells per well and cultured in a 5% CO2 incubator at 37° C. for 24 hours. The cultured wells were treated with each of Dox and IGF-1 in a concentration of 100 ng/ml for 4 days to induce early senescence of the skin fibroblasts, and then treated with the peptide 21a-D in a concentration of 100 ug/ml for 3 days followed by being further cultured. For immunofluorescence stain, the cell culture solution was washed with PBS three times and fixed by treating it with ice-cold methanol at −20° C. for 10 minutes. Next, it was added into PBS containing 3% BSA and left for 1 hour. […]
# [2] = system: skin senescent cells (DI model and RS model); experiment: SA-β-gal stain and microscopic observation of apoptosis efficacy on skin senescent cells; format: cell-based, human; details: treated as in Test Example 2, FIGS. 3A and 3B
# Experimental: In the same manner as that of Test Example 2, after the DI model and the RS model were treated with a peptide (21a-D) consisting of the amino acid sequence of […] (SEQ ID NO: 1) and a peptide (FOXO4-DRI) consisting of the amino acid sequence of […] (SEQ ID NO: 4), SA-3-gal (senescent associated-β-galactosidase) stain and microscopic observation were performed to visually confirm an apoptosis efficacy of the skin senescent cells. The SA-3-Gal stain was performed according to the protocol using the Senescence Cell Histochemical Staining Kit (CS0030, Sigma, USA), and after 24 hours of the staining, it was confirmed whether or not the cells were stained through an optical microscope.
# T1 sequence (P04637 whole entry): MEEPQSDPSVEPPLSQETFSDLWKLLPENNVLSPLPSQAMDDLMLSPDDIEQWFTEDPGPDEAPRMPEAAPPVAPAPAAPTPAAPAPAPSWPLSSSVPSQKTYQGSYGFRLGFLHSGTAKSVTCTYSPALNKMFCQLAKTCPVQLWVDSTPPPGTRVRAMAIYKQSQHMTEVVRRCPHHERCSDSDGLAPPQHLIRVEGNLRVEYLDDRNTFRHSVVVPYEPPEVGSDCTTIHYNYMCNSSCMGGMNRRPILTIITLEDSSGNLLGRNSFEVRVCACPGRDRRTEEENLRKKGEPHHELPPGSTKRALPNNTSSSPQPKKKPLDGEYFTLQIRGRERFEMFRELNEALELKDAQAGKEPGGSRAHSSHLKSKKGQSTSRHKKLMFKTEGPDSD
Sequence,"apoptosis effect of senescent cells (survival rate of aged cells, CCK-8) [1]","expression of MMP-1 (qPCR, corrected for GAPDH) (MMP-1)",selective apoptosis effect on the senescent cells versus normal cells [1],binding of p53 and FOXO4 in the nucleus (p53 and FOXO4),cytoplasmic movement of p53 (immunofluorescence) (p53 and FOXO4),"number of senescent cells (SA-β-gal stain, microscopic observation) [2]"
QRKKRRQRRRPRRNAWGNQSYA [22a-L],minimal,,,,,
AYSQNGWANRRPRRRQRRKKRG [22a-D],minimal,,,,,
AYSQNGWANRRRRGGRRRRRR [21a-D],,suppressed,selective apoptosis of only skin senescent cells was induced,suppressed the binding of p53 and FOXO4 in the nucleus,p53 moved to a cytoplasm in the nucleus,significantly reduced
"LTLRKEPASEIAQSILEAYSQNGWANRRSGGKRPPPRRRQRRKKRG [FOXO4-DRI, reference compound]",apoptosis effect had on the senescent cells as well as even on the normal cells,,weak,,,

# Source: patent US20250017840A1, “NOVEL SENOTHERAPY PEPTIDE AND COMPOSITION CONTAINING THE SAME” (AMOREPACIFIC CORPORATION, priority 2023, published 2025)
